In US10029986B2, “Alkynyl pyridine-substituted amide compound and pesticide” (NISSAN CHEMICAL INDUSTRIES, LTD., priority 2014, dated 2018) one finds pest or weed control and inhibition of growth data, which are given here for seven compounds.

Test [1] concerns Botrytis cinerea. Description: Test on the preventive effect against cucumber gray mold (mycelium inoculation). The format is in vivo. To be noted: 48 h, test solution A 500 ppm, 5 ml per pot, cucumber cotyledon, agar block inoculation, 2 days at 20° C. The procedure, abridged:
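Cucumber cotyledons (Sagami Hanjiro) were sprayed with 5 ml per pot of a 500 ppm dilution of a 20 wt % emulsifiable concentrate. Next day, mycelial agar plugs of Botrytis cinerea were placed on cotyledons, held humid at 20° C for 2 days. Lesion proportion gave the control value; duplicate.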

Test [2] concerns Asperaillus niger. The test is described as follows: Test on the antifungal activity against Asperaillus niger. The format is cell-based. As to conditions: 48 h; test solution B 100 ppm, 10 μl per well, 96 well plate, 25° C. dark, 2 days after treatment; read-out: efficacy (flora area ratio relative to non-treated well). The procedure, abridged: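 Compounds at 100 ppm (diluted from DMSO stock in water) were added to potato dextrose 1% agar wells seeded with Aspergillus niger spores (10 spores/3 μl). Plates held at 25 °C in dark for 2 days. Efficacy (%) calculated from flora area ratio versus non-treated wells.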

Test [3] concerns Southern root-knot nematode (Meloidogyne incoqnita). Description: Insecticidal test against Southern root-knot nematode (eggs, 96 well plate). As to conditions: 96 h, test solution B 100 ppm, 10 μl per well, 25° C. dark, 4 days after treatment, read-out: efficacy (unhatched eggs + inactive larvae relative to non-treated). The format is in vivo.
Test [4] concerns Sclerotinia sclerotiorum. Description: Test on the preventive effect against cucumber stem rot. To be noted: 48 h, test solution A 500 ppm, 5 ml per pot, agar block inoculation, 2 days at 20° C. The format is in vivo. An outline of the steps: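 Cucumber (Sagami Hanjiro) at cotyledon stage sprayed with 5 ml/pot of 500 ppm compound from a 20 wt % emulsifiable concentrate, air-dried, then inoculated on seed leaves with agar blocks of S. sclerotiorum grown on PDA. Kept humid at 20° C for 2 days; lesion proportion scored and control value calculated, in duplicate.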

Test [5] has as its system Blumeria graminis f. sp. tritici. Description: Test on the preventive effect against wheat powdery mildew. The format is in vivo. To be noted: 168 h, test solution A 500 ppm, 5 ml per pot, wheat 1.3-leaf stage, 7 days after inoculation. The procedure, abridged:
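Compounds formulated as 20 wt % emulsifiable concentrates and diluted with water to 500 ppm; 5 ml per pot applied to wheat (Norin 61) at the 1.3-leaf stage. Conidia inoculated one day later in a 20° C greenhouse; lesion proportion scored after 7 days as control value, in duplicate.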

Test [6] deals with Erysiphe polygoni (synonym: Erysiphe betae). Description: Test on the preventive effect against cucumber powdery mildew. As to conditions: 216 h, test solution A 500 ppm, 5 ml per pot sprayed, cucumber cotyledon stage, 9 days after inoculation. Type of test: in vivo. An outline of the steps: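 Cucumber (Sagami Hanjiro) at cotyledon stage sprayed with 500 ppm compound (diluted from 20 wt% emulsifiable concentrate), air-dried, then inoculated with Erysiphe polygoni conidia. Kept 9 days at 20 °C in greenhouse; lesion area ratio scored in duplicate, control value = [1−(treated/untreated lesion ratio)]×100.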

Take `Cn1cc(C(=O)NCC(F)(F)c2ncc(C#CC3CC3)cc2Cl)c(C(F)F)n1` [8-003]: the pest or weed control at 500 µg/mL in test [1], in test [4], in test [5] and in test [6] was not below 70% each time. Also, the inhibition of growth at 100 µg/mL in test [2] is not below 50%. Also, the pest or weed control at 100 µg/mL in test [3] was not below 50%.
As to `CC(CNC(=O)c1cn(C)nc1C(F)F)c1ncc(C#CC2CC2)cc1Cl` (stereo not drawn) [8-007], the pest or weed control at 500 µg/mL in test [1], in test [4], in test [5] and in test [6] was not below 70% each time. The inhibition of growth at 100 µg/mL in test [2] is not below 50%. The pest or weed control at 100 µg/mL in test [3] is not below 50%.
For `Cn1cc(C(=O)NCC(C)(C)c2ncc(C#CC3CC3)cc2Cl)c(C(F)F)n1` [8-008], the pest or weed control at 500 µg/mL in test [1], in test [4], in test [5] and in test [6] was not below 70% each time. Moreover, the inhibition of growth at 100 µg/mL in test [2] is not below 50%. Moreover, the pest or weed control at 100 µg/mL in test [3] is not below 50%.
Consider `C=C(CNC(=O)c1cn(C)nc1C(F)F)c1ncc(C#CC2CC2)cc1Cl` [8-011, N-[2-[3-chloro-5-(cyclopropylethynyl)pyridin-2-yl]-2-propenyl]-3-difluoromethyl-1-methyl-1H-pyrazole-4-carboxamide], for which the pest or weed control at 500 µg/mL in test [1], in test [4], in test [5] and in test [6] was not below 70% in each case. Moreover, the inhibition of growth at 100 µg/mL in test [2] was not below 50%. For the same compound, the pest or weed control at 100 µg/mL in test [3] is not below 50%.
Regarding `COC(CNC(=O)c1cn(C)nc1C(F)F)c1ncc(C#CC2CC2)cc1Cl` (stereo not drawn) [8-019], the pest or weed control at 500 µg/mL in test [1], in test [4], in test [5] and in test [6] was not below 70% each time. The inhibition of growth at 100 µg/mL in test [2] was not below 50%. Also, in test [3], the pest or weed control at 100 µg/mL is not below 50%.
Turning to `COC(c1ncc(C#CC2CC2)cc1Cl)C(C)NC(=O)c1cn(C)nc1C(F)F` (stereo not drawn) [8-028, N-[2-[3-chloro-5-(cyclopropylethynyl)pyridin-2-yl]-2-methoxy-1-methylethyl]-3-difluoromethyl-1-methyl-1H-pyrazole-4-carboxamide], the pest or weed control at 500 µg/mL in test [1], in test [4], in test [5] and in test [6] was not below 70% in each case. Moreover, the inhibition of growth at 100 µg/mL in test [2] is not below 50%. Also, the pest or weed control at 100 µg/mL in test [3] was not below 50%.
Regarding `COC(c1ncc(C#CC2CC2)cc1Cl)C(C)NC(=O)c1sc(C)nc1C(F)F` (stereo not drawn) [9-006a], the pest or weed control at 500 µg/mL in test [1], in test [4], in test [5] and in test [6] was not below 70% throughout. In test [2], the inhibition of growth at 100 µg/mL is not below 50%. In addition, in test [3], the pest or weed control at 100 µg/mL was not below 50%.
